Data published in PubChem BioAssay AID328 (DTP/NCI, 2004).
Where “and” joins values, the source holds several entries; their conditions need not be identical. Equal entries are not always repeated. Inconclusive results and toxic doses are left out. Rule for the calls: active = survival T/C of 150% or more; inactive = T/C below 125% in these data.

Tested on: BDF1 mice, P388 leukemia ip, median survival T/C
Assay: NCI In Vivo Anticancer Drug Screen. Data for tumor model P388 Leukemia (intraperitoneal) in B6D2F1 (BDF1) mice
Conditions: endpoint: median survival time, higher = longer survival
Outline: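 Vehicle-dosed animals serve as the reference; survival of compound-dosed, tumour-implanted mice is divided by it.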

[1] = dose: 100.0 mg/kg/injection, schedule: Q04DX003 (ip), vehicle: Klucel (hydroxypropylcellulose) (HPC)
[2] = dose: 200.0 mg/kg/injection, schedule: Q04DX003 (ip), vehicle: Klucel (hydroxypropylcellulose) (HPC)
[3] = dose: 400.0 mg/kg/injection, schedule: Q04DX003 (ip), vehicle: Klucel (hydroxypropylcellulose) (HPC)
[4] = dose: 50.0 mg/kg/injection, schedule: Q01DX009 (ip), vehicle: saline with Tween-80
[5] = dose: 100.0 mg/kg/injection, schedule: Q01DX009 (ip), vehicle: saline with Tween-80
[6] = dose: 200.0 mg/kg/injection, schedule: Q01DX009 (ip), vehicle: saline with Tween-80
[7] = dose: 12.5 mg/kg/injection, schedule: Q01DX009 (ip), vehicle: saline with Tween-80
[8] = dose: 25.0 mg/kg/injection, schedule: Q01DX009 (ip), vehicle: saline with Tween-80
[9] = dose: 100.0 mg/kg/injection, schedule: Q01DX009 (ip), vehicle: saline
[10] = dose: 200.0 mg/kg/injection, schedule: Q01DX009 (ip), vehicle: saline
[11] = dose: 100.0 mg/kg/injection, schedule: Q04DX003 (ip), vehicle: saline with Tween-80
[12] = dose: 200.0 mg/kg/injection, schedule: Q04DX003 (ip), vehicle: saline with Tween-80
[13] = dose: 400.0 mg/kg/injection, schedule: Q04DX003 (ip), vehicle: saline with Tween-80

Measured: T/C

COc1ccc(CC2c3cc(OC)c(OC)cc3CCN2C)cc1OC (stereo unspecified)
inactive: dose: 50.0 mg/kg/injection, schedule: Q01DX005 (ip), vehicle: saline with Tween-80 90 % of control

O=c1[nH]c(=O)n(O)c2nc[nH]c12
inactive: dose: 25.0 mg/kg/injection, schedule: Q04DX003 (ip), vehicle: saline 100 % of control | dose: 37.5 mg/kg/injection, schedule: Q01DX001 (ip), vehicle: saline 100 % of control | dose: 50.0 mg/kg/injection, schedule: Q04DX003 (ip), vehicle: saline 100 % of control | dose: 75.0 mg/kg/injection, schedule: Q01DX001 (ip), vehicle: saline 109 % of control | dose: 75.0 mg/kg/injection, schedule: Q01DX009 (ip), vehicle: saline 90 % of control | dose: 100.0 mg/kg/injection, schedule: Q04DX003 (ip), vehicle: saline 118 % of control

CN(C)C1C(=O)C(C(N)=O)=C(O)C2(O)C(=O)C3=C(O)c4c(O)cccc4C(C)(O)C3C(O)C12 (stereo unspecified)
inactive: dose: 50.0 mg/kg/injection, schedule: Q01DX010 (oral), vehicle: water 100 % of control | dose: 100.0 mg/kg/injection, schedule: Q01DX010 (oral), vehicle: water 109 % of control | dose: 200.0 mg/kg/injection, schedule: Q01DX010 (oral), vehicle: water 100 % of control

Cc1ccc(NS(=O)(=O)c2ccc(F)cc2)c(C)c1
inactive: [1] 100 % of control | [2] 100 % of control | [3] 100 % of control

COC(=O)c1cc([N+](=O)[O-])c(Cl)c([N+](=O)[O-])c1
inactive: dose: 6.25 mg/kg/injection, schedule: Q01DX009 (ip), vehicle: Klucel (hydroxypropylcellulose) (HPC) 109 % of control | dose: 12.5 mg/kg/injection, schedule: Q01DX009 (ip), vehicle: Klucel (hydroxypropylcellulose) (HPC) 104 % of control | dose: 25.0 mg/kg/injection, schedule: Q01DX009 (ip), vehicle: Klucel (hydroxypropylcellulose) (HPC) 100 % of control | dose: 25.0 mg/kg/injection, schedule: Q04DX003 (ip), vehicle: Klucel (hydroxypropylcellulose) (HPC) 100 % of control | dose: 50.0 mg/kg/injection, schedule: Q04DX003 (ip), vehicle: Klucel (hydroxypropylcellulose) (HPC) 105 % of control

N=C1CCCC1C(=S)SCCC(N)=O (stereo unspecified)
inactive: [4] 99 % of control | [5] 99 % of control | [6] 94 % of control

CSc1nc(=O)c(=O)nc(Nc2ccccc2)n1-c1ccccc1
inactive: [7] 88 % of control | [8] 95 % of control | [4] 88 % of control

N#CC(C#N)=Cc1ccc2c(c1)CCC2
inactive: dose: 5.0 mg/kg/injection, schedule: Q04DX003 (ip), vehicle: saline with Tween-80 104 % of control | dose: 9.5 mg/kg/injection, schedule: Q01DX009 (ip), vehicle: saline with Tween-80 104 % of control | dose: 10.0 mg/kg/injection, schedule: Q04DX003 (ip), vehicle: saline with Tween-80 95 % of control | dose: 19.0 mg/kg/injection, schedule: Q01DX009 (ip), vehicle: saline with Tween-80 109 % of control | dose: 20.0 mg/kg/injection, schedule: Q04DX003 (ip), vehicle: saline with Tween-80 95 % of control | dose: 38.0 mg/kg/injection, schedule: Q01DX009 (ip), vehicle: saline with Tween-80 86 % of control and 100 % of control

CCOC(=O)Nc1nc2ccccc2[nH]1
inactive: dose: 6.25 mg/kg/injection, schedule: Q01DX009 (ip), vehicle: saline with Tween-80 98 % of control | [7] 116 % of control | [8] 109 % of control | [4] 105 % of control

[O-][n+]1c(-c2ccccc2)cn2ccccc21
inactive: dose: 100.0 mg/kg/injection, schedule: Q01DX001 (ip), vehicle: saline with Tween-80 105 % of control | dose: 200.0 mg/kg/injection, schedule: Q01DX001 (ip), vehicle: saline with Tween-80 98 % of control

COc1cc2ccc(CCN)cc2cc1OC
inactive: [7] 95 % of control | [8] 108 % of control | [4] 87 % of control

COc1ccc(C(N)C(=O)O)cc1 (stereo unspecified)
inactive: dose: 100.0 mg/kg/injection, schedule: Q01DX001 (ip), vehicle: Klucel (hydroxypropylcellulose) (HPC) 100 % of control | dose: 200.0 mg/kg/injection, schedule: Q01DX001 (ip), vehicle: Klucel (hydroxypropylcellulose) (HPC) 109 % of control | dose: 400.0 mg/kg/injection, schedule: Q01DX001 (ip), vehicle: Klucel (hydroxypropylcellulose) (HPC) 109 % of control

O=C(CO)Nc1ccc(Br)cc1
inactive: dose: 50.0 mg/kg/injection, schedule: Q01DX009 (ip), vehicle: Klucel (hydroxypropylcellulose) (HPC) 94 % of control | dose: 100.0 mg/kg/injection, schedule: Q01DX009 (ip), vehicle: Klucel (hydroxypropylcellulose) (HPC) 104 % of control | dose: 200.0 mg/kg/injection, schedule: Q01DX009 (ip), vehicle: Klucel (hydroxypropylcellulose) (HPC) 86 % of control

CCCCC(C)(CN(C)C)C(=O)/C=C/c1ccc(Cl)c(Cl)c1 (stereo unspecified)
inactive: dose: 6.25 mg/kg/injection, schedule: Q01DX009 (ip), vehicle: saline 112 % of control | dose: 12.5 mg/kg/injection, schedule: Q01DX009 (ip), vehicle: saline 120 % of control | dose: 25.0 mg/kg/injection, schedule: Q01DX009 (ip), vehicle: saline 118 % of control

NC1=NC(=O)/C(=C/c2ccccc2)S1
inactive: dose: 50.0 mg/kg/injection, schedule: Q01DX009 (ip), vehicle: saline 90 % of control | [9] 100 % of control | [10] 100 % of control

NNC(=O)c1cnccn1
inactive: dose: 40.0 mg/kg/injection, schedule: Q01DX010 (ip), vehicle: water 100 % of control | dose: 60.0 mg/kg/injection, schedule: Q01DX010 (ip), vehicle: water 100 % of control | dose: 80.0 mg/kg/injection, schedule: Q01DX010 (ip), vehicle: water 100 % of control and 109 % of control

COc1cccc2c1C(=O)c1c(O)c(COC3CC(N)C(O)C(C)O3)cc(O)c1C2=O (stereo unspecified)
inactive: dose: 12.5 mg/kg/injection, schedule: Q01DX009 (ip), vehicle: water 100 % of control | dose: 25.0 mg/kg/injection, schedule: Q01DX009 (ip), vehicle: water 100 % of control

CCN1C(=O)C(=O)c2ccccc21
inactive: dose: 75.0 mg/kg/injection, schedule: Q01DX009 (ip), vehicle: saline with Tween-80 86 % of control

CC(=O)Oc1ccc(C2(c3ccc(OC(C)=O)cc3)C(=O)Nc3ccccc32)cc1
inactive: [1] 95 % of control | [2] 104 % of control | [3] 100 % of control

CCOC(=O)c1ccc(N=CNc2ccc(C(=O)OCC)cc2)cc1
inactive: [7] 100 % of control | [8] 92 % of control | dose: 25.0 mg/kg/injection, schedule: Q04DX003 (ip), vehicle: saline with Tween-80 91 % of control | dose: 50.0 mg/kg/injection, schedule: Q04DX003 (ip), vehicle: saline with Tween-80 87 % of control

C[C@H]1[C@H](O)[C@H]2[C@@H](CCC3=CC(=O)CC[C@@]32C)[C@@H]2CC[C@H](O)[C@@]12C
inactive: [5] 100 % of control | [11] 91 % of control | [6] 87 % of control and 100 % of control | [12] 95 % of control | dose: 400.0 mg/kg/injection, schedule: Q01DX009 (ip), vehicle: saline with Tween-80 87 % of control and 118 % of control | [13] 91 % of control

CCOC(=O)C(CSCSC)NC(=O)/C=C/c1cccnc1 (stereo unspecified)
inactive: [9] 96 % of control | [11] 91 % of control | [10] 106 % of control | [12] 91 % of control | dose: 400.0 mg/kg/injection, schedule: Q01DX009 (ip), vehicle: saline 104 % of control | [13] 120 % of control
